Experimental data taken from publication PMC11413854, “Reversible Control of Native GluN2B-Containing NMDA Receptors with Visible Light” (ACS Chemical Neuroscience, 2024).
Entries after “also recorded” stand apart in the source; their conditions may differ. Where two headings read alike, the source gives them in different places. Each block holds one compound with its values, some of them ahead of it.

Tests used:
[1] = molecular target: GluN1/GluN2B NMDARs; details: cited from earlier work; for Ki or IC50: Sup. Fig. 2G, Ki or IC50 not specified
[2] = test system: cultured cortical neurons at DIV 14; test: NMDA excitotoxicity test, neuronal survival by MTT; type: cell-based, mouse; details: for neuronal survival: 5 µM inhibitor + 100 µM NMDA + 10 µM glycine; for % of survival, Mean: compound 5µM with NMDA 100µM, MTT A(540 nm) normalized to control (100) and NMDA alone (0)
From the text: We first investigated whether OptoNAM-3 could be used in the context of a patho-physiological process related to GluN1/GluN2B receptors. Overactivation of NMDARs induced by tonic exposure to glutamate or NMDA is well-known to trigger neuronal death.[6] GluN1/GluN2B receptors are thought to be the major player of this neurotoxicity, and GluN1/GluN2B antagonists have proven to be potent neuroprotectants in vitro and in vivo.[5],[15] To test the neuroprotective activity of OptoNAM-3 and its photodependence of action, we performed a protocol of excitotoxicity based on exposure to NMDA (100 μM) of cultured cortical neurons at DIV 14,[15] in the presence of OptoNAM-3. […] OptoNAM-3 in the dark, at a concentration of 5 μM, induced, like ifenprodil, an ∼50% increase in cell survival (Figure S4). […] OptoNAM-3 is therefore able to promote cell survival in neuron cultures in a photodependent manner.
Mice were housed in the IBENS rodent central facility duly accredited by the French Ministry of Agriculture. All experiments were performed in compliance with French and European regulations on care and protection of laboratory animals (EU Directive 2010/63, French Law 2013–118, February 6, 2013), and were approved by local ethics committees and by the French Ministry of Research and Innovation (authorization numbers #05137.02, APAFIS #28867-2020121814485893). Dissociated cultures of cortical neurons were prepared from mouse embryos at E18 as described previously.[84] After removing meninges, cortices were placed in ice-cold HBSS solution. Cell dissociation was performed individually for cortices of each embryo. Cortices were incubated in 2.5% trypsin at 37 °C for 7 min, rinsed three times with 37 °C phosphate buffer saline, and finally suspended in plating medium (Neurobasal Medium, supplemented with 0.5 mM L-glutamine, 1% B27 supplement, and penicillin/streptomycin). The neurons were further dissociated by trituration, and cells were plated on poly-D-lysine coated coverslips in 24-well culture dishes at a density of 3 × 10^5 cells per well for the excitotoxicity test and that of 1 × 10^5 cells per well for patch clamp experiments. Cultures were incubated at 37 °C in a humidified atmosphere of 5% CO2. Cells were fed by changing 1/2 medium to fresh Neurobasal medium every 4 days. For the excitotoxicity experiments, after 5 days in vitro, growth of non-neuronal cells was halted by a 24 h exposure to FDX ([…] 5-fluoro-2′-deoxyuridine). The cultures were used for experiments after 6 to 14 days in vitro (DIV6–8 for patch clamp experiments and DIV14 for excitotoxicity tests).
Excitotoxicity tests were performed 14 days after the culturing step as described in ref[15]. Just before the experiments, the neuronal medium was changed and the neurons incubated in the external patch recording solution (see above). Two replicates of 24 well plates containing cultured cortical neurons were exposed to the same 4 conditions, in which the following compounds were added to the medium: (1) glycine (10 μM) alone (control); (2) glycine (10 μM) + NMDA (100 μM); (3) glycine (10 μM) + NMDA (100 μM) + 5 μM ifenprodil; and (4) glycine (10 μM) + NMDA (100 μM) + 5 μM trans-OptoNAM-3 (dark). One of the two plates was exposed to UV light (Jena analytic US, UVP Hand-held UV lamp UVGL-58, power ∼1 mW) for 2 min. The two plates were then put back in the 37 °C incubator for 10 min. Agonist exposure was terminated by washing out the exposure solution with conditioned Neurobasal medium, prior to returning the dishes to the incubator for 24 h before assessment of neuronal death.
Overall neuronal cell death was determined 24 h after NMDA exposure by the MTT test. Mitochondrial and cytosolic dehydrogenases of living cells reduce the yellow tetrazolium salt (MTT) to produce a purple formazan dye that can be detected spectrophotometrically.[85] […]

[3] = molecular target: T1, GluN1/GluN2B NMDA receptors (UniProt P35439+Q01097); test: TEVC electrophysiology on Xenopus oocytes expressing wt GluN1/GluN2B NMDARs; type: cell-based, rat GluN1, mouse GluN2B; details: theoretical dose-response curve of a pure cis population calculated from 365 and 350 nm PSS
T1 construct: expressed in transfected cells; host or cells: Xenopus laevis oocytes (nuclear cDNA injection)
T1 sequence (Q01097 27-1482, other chains not shown): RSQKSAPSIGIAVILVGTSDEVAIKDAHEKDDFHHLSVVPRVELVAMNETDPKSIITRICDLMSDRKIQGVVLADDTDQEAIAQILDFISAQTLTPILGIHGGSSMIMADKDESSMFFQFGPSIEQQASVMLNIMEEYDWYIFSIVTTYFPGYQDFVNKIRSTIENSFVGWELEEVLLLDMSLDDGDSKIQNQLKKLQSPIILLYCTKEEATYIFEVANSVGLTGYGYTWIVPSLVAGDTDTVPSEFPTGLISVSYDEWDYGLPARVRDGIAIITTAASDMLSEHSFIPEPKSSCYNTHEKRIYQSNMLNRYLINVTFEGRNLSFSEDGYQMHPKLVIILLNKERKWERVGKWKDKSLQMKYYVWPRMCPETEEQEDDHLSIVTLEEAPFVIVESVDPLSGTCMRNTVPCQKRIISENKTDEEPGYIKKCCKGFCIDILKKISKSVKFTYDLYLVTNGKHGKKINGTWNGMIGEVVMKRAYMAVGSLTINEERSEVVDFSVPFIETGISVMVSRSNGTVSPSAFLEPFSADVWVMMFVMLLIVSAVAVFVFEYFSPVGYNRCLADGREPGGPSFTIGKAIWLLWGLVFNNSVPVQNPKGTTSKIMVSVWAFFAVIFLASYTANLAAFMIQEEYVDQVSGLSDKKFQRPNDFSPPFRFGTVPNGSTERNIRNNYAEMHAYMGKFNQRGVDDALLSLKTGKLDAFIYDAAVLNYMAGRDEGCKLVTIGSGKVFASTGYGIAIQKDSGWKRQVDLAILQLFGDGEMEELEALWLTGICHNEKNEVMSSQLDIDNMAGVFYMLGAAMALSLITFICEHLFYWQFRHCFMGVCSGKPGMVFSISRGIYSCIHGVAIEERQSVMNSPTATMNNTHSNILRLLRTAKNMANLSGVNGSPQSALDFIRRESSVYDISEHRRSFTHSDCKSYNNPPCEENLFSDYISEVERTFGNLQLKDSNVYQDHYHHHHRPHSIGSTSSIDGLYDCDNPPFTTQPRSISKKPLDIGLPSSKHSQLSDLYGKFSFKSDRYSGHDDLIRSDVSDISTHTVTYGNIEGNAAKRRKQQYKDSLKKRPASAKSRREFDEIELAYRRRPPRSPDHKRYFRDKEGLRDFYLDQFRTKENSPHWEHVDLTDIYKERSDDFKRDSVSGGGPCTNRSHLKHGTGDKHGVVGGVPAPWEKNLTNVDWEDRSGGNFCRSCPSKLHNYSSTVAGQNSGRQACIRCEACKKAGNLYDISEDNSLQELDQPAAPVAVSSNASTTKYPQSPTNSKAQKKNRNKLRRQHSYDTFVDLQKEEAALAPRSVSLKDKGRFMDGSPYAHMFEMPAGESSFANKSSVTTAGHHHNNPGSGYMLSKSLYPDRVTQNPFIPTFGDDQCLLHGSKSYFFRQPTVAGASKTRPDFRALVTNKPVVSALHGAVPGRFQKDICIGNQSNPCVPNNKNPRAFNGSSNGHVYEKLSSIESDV
From the text: The activity of OptoNAM-3 was functionally monitored by electrophysiology on Xenopus oocytes (see Methods). To assess the light-dependent effect, we tested the activities of the dark PSS (mostly trans) and the UV PSS (mostly cis, see above) separately. For each concentration, we prepared a solution divided into two samples: one in which the compound was kept in the dark for the duration of the experiment (dark PSS state); and the other that was preilluminated with either 350 or 365 nm light (350 or 365 nm PSS) and then kept away from the light for the duration of the experiment in order to avoid photoisomerization of the compounds by ambient light (see Methods). […] We generated dose–response curves of OptoNAM-3 dark and UV PSS on wild-type (wt) GluN1/GluN2B NMDA receptors (Figure 3A) in the presence of saturating concentrations of agonists (100 μM glutamate and glycine).
We used cDNA coding for rat GluN1–1a (named GluN1 herein) (GenBank: U08261.1), rat GluN2A (GenBank: D13211.1), mouse GluN2B (GenBank: D10651.2), rat GluA1 flop (GenBank: M36418.2), and rat Myc-GluA2(Q)-flip (GenBank: AF164344.1) cloned into pcDNA3-based expression plasmids. GluK2 (GenBank: Z11548.1) corresponds to the fully RNA-edited version.[80] The GluN2B-ΔNTD construct is from ref[45] and GluN2B–N615K is from ref[81]. Single mutants GluN2B-Q110G and GluN1-L135H were from ref[19]. The GluA2 cDNA contains a Myc tag ([…]) fused between the signal peptide and the N-terminus sequences, and the GluA2 subunit is […] for its Q/R/N site (GluA2(Q)) to allow permeation of homomeric GluA2 receptors.[2] cDNAs coding for rat GluN2C (GenBank: M91563.1) and GluN2D subunits (GenBank: L31611.1) were in prK5 plasmids.
Oocytes from Xenopus laevis were used for heterologous expression of recombinant NMDA receptors studied using a two-electrode voltage clamp (TEVC). Female Xenopus laevis were housed and ovary bags harvested according to the European Union guidelines (husbandry authorizations #C75–05–31 and #D75–05–31; project authorizations #05137.02; and Apafis #28867–2020121814485893). Fragments of ovary bags were also purchased from the “Centre de Ressources Biologiques Xenopes” (now TEFOR, Paris Saclay, France) and from the European Xenopus Resource Center (EXRC, Portsmouth, UK). Xenopus laevis oocytes were harvested and prepared as previously described in ref[82].
Expression of recombinant NMDA receptors was obtained by oocyte nuclear coinjection of 37 nL of a mixture of cDNAs (at 30 ng/μL) coding for GluN1–1a and various GluN2 subunits (ratio 1:1). The protocol in ref[43] was followed for the expression of GluN1/GluN2A/GluN2B triheteromers. The oocytes were transferred in 96-well plates filled with Barth solution (in mM: 88 NaCl, 1 KCl, 0.33 Ca(NO3)2, 0.41 CaCl2, 0.82 MgSO4, 2.4 NaHCO3, and 7.5 HEPES, pH adjusted to 7.3 with NaOH), supplemented with gentamicin ([…]) and 50 μM APV, a selective NMDA receptor antagonist. Plates were then stored at 18 °C for 24 h for GluN1/GluN2A expression and for 48––72 h for the expression of GluN1/Glu2B, GluN1/GluN2A/GluN2B, and mutants.
TEVC recordings were performed 1–3 days following injection. TEVC recordings were performed using an Oocyte Clamp amplifier OC-725 (Warner Instruments) and computer-controlled via a 1440A Digidata (Molecular Devices). Currents were sampled at 100 Hz and low-pass-filtered at 20 Hz using an 8-pole Bessel filter (900 Series, Frequency Devices Inc.).

SMILES: Cc1cc(N)nc(/C=C/c2ccccc2)c1 [parent compound 2]
Ki or IC50 ([1]; ref: ref. 40): 10 nM
IC50 ([1]; ref 2,6 (SI), read-out: Parent compound IC50): 10 nM

SMILES: CC(C(O)c1ccc(O)cc1)N1CCC(Cc2ccccc2)CC1 (stereo not drawn) [ifenprodil]
neuronal survival ([2]; 2 min UV (365 nm), normalized to control and NMDA): not affected; also recorded: No photodependent effect
neuronal survival ([2]; dark, normalized to control (100%) and NMDA (0%)): 60%
% of survival, Mean ([2]; Dark): 59.345%
% of survival, Mean ([2]; UV): 59.393%

SMILES: Nc1ccnc(N2CCc3ccccc3C2)c1 [parent compound 1]
Ki ([1]; ref 3 (SI), read-out: Parent compound Ki): 3 nM

SMILES: Nc1ccnc(N2CCc3ccccc3C2)c1 [9n = Compound 1]
Ki or IC50 ([1]; ref: ref. 39): 3 nM

activity of the cis isomer on GluN1/GluN2B NMDARs [3]: inactive
SMILES: c1ccc(/N=N\c2ccc(CCNc3ccncc3)cc2)cc1 [cis-OptoNAM-3]
